| SMILES | melting point |
| --- | --- |
| CC(C)(C)C(=O)Nc1ncccc1CNC1CCN(Cc2ccccc2)CC1 | 138 °C |
| CONC(NC(C)=O)C(=O)NCc1ccccc1 (stereo not given) | 95 to 97 °C |
| COc1cccc2c3c([nH]c12)CCNC3=O | 255 to 258 °C |
| CCC12CCC3C4=C(CCC3C1CCC2O)CC(OC)=CC4 (stereo not given) | 98 to 104 °C |
| O=C1CCN(C(=O)c2cccs2)CC1 | 81 to 83 °C |
| O=CNc1ccccc1CCO | 49 to 54 °C |
| O=C(Nc1cnccn1)Nc1cccc2c1C1CCCCN1C2=O (stereo not given) | 215 °C |
| COc1cccc2c1CC(C(=O)NCCOc1ccc(C(=O)O)cc1)N2S(=O)(=O)c1ccc(-c2ccc(F)cc2F)cc1 (stereo not given) | 206 °C |
| Nc1ccc(S(=O)(=O)c2cc(-c3ccc(F)cc3)nc(N3CCCC3)c2)cc1 | 245 to 246 °C |
| Cn1nc(-c2ccc(F)cc2)c(-c2ccncc2)c1CCCc1ccccc1 | 83 to 87 °C |
| C/C(Cl)=C/CC(C)(C(=O)O)C(=O)O | 99 to 101 °C |
| Cc1cccc(Nc2nnc(C3OCOCO3)c3ccccc23)c1 | 161 °C |
| COc1cc2c(cc1OC)C1CC(=O)C3CCCCC3N1CC2 (stereo not given) | 129 to 141 °C |
| Cc1oc(-c2ccccc2)nc1CCOc1ccc(CC(Br)C#N)cn1 (stereo not given) | 93 to 94 °C |
| CCCCCCCCCCCCCCCCC(O)CCCOC1CCCCO1 (stereo not given) | 39 to 43 °C |
| Cc1nnc2n1-c1ccc(Br)cc1C(c1ccccn1)=NC2 | 248 to 250 °C |
| Nc1c(Cl)cc(C(O)CNCCC#CCOCCc2ccccc2)cc1Cl (stereo not given) | 62.5 to 63 °C |
| CCCCCCCCCCOc1cc(OCCCCCCCCCC)cc(N(CC(=O)OC)CC(=O)OC)c1 | 36 to 38 °C |
| CCOC(=O)CC1(Cc2ccncc2)C(=O)N(N2CCOCC2)c2ccccc21 (stereo not given) | 168 °C |
| CCSCc1c(S(C)(=O)=O)ccc(C(=O)O)c1Cl | 172 to 174 °C |
| COc1ccc(-c2cn(C)cc(-c3cccc(C(F)(F)F)c3)c2=O)cc1OC | 148 to 150 °C |
| Cc1ccc2cccc(OCc3c(Cl)ccc(S(=O)(=O)N4CCCC4C(=O)NCCCN)c3Cl)c2n1 (stereo not given) | 130 to 132 °C |
| CCC(OCc1ccc(-c2ccc(Cl)cc2)cc1)(C(=O)OC)c1ccccc1 (stereo not given) | 68 to 72 °C |
| CCc1cccc(C)c1CNc1cc(C(=O)NCCO)nc2c1nc(C)n2C | 256 to 258 °C |
| c1ccc(C(c2ccccc2)(c2ccns2)n2cncn2)cc1 | 235 to 240 °C |
| O=C(Nc1ccc(Cl)c(Cl)c1)OC1CN2CCC1CC2 (stereo not given) | 181 to 184 °C |
| CCOC(=O)C1=C(COCC(C)N=[N+]=[N-])NC(C)=C(C(=O)OC)C1 (stereo not given) | 115 °C |

Now from value to molecule:

| melting point | SMILES |
| --- | --- |
| 91 °C | CCOC(=O)C1C(=O)C=C(c2ccc(OCC(=O)O)c(Cl)c2Cl)CC1c1ccccc1 (stereo not given) |
| 148 to 151 °C | Nc1ccc(-n2cc(C(=O)O)c(=O)cc2-c2ccc3ccccc3c2)cc1 |
| 219 °C | Cc1cc2cc(CN3CCC(CC(=O)N(C)C)CC3)cnc2cc1NC(=O)c1ccc(-c2ccc(F)cc2)cc1 |
| 170 to 173 °C | COc1cc2c(cc1OS(N)(=O)=O)CC(C)(C)N(C(=O)c1cc(OC)c(OC)c(OC)c1)C2C (stereo not given) |
| 124 to 125 °C | CC(=O)C(C)Oc1cc(N)c(Cl)cc1C(=O)NCCN(C)C (stereo not given) |
| 183 °C | NC(=O)c1nc(-c2ccc(Oc3ccc(F)cc3)c(F)c2)cs1 |
| 169 to 170 °C | COc1ccc(C2c3cc(NC(=O)CC(C)(C)C)c(C)c(C)c3OC2(C)C)cc1 (stereo not given) |
| 315 °C | Cc1cc2c(cc1C)-n1nnnc1C=C(c1ccc(-n3c(C)nc4cnccc43)cc1)N2 |
| 128 °C | COc1cc(OCc2oc(=O)oc2C)c(C(=O)CCc2ccc3occc3c2)cc1C1OC(CO)C(O)C(O)C1O (stereo not given) |
| 152 °C | O=C(Nc1csc(-c2ccncc2)n1)Nc1cccc2c1C1CCCCN1C2=O (stereo not given) |
| 108 to 110 °C | Cc1cc(C(=O)N(C(C)C)C(C)C)ccc1[N+](=O)[O-] |
| 213 to 216 °C | O=C(O)CN(CC(=O)O)C(=O)OCC1c2ccccc2-c2ccccc21 |
| 87 to 88 °C | COc1ccc(CN2C(=O)C3CC(c4ccccc4)(C3)C2=O)cc1 |
| 101 to 104 °C | CCOC(=O)Cc1cc(C)c(C(=O)c2ccc(Cl)cc2)n1C |
| 218 to 221 °C | COc1cccc(C23CC(=O)NC(=O)C2=CCC(C)C3)c1 (stereo not given) |
| 218 to 220 °C | O=C(CNc1cccc(F)c1)Nc1c(Cl)ccc2nc(N3CC[C@@H](O)C3)ccc12 |
| 116 to 117 °C | COc1ccc(NC(=O)c2ccccc2N)cc1 |
| 246 to 248 °C | COC(=O)c1ccc(CCC2CNc3nc(NC(=O)C(C)(C)C)nc(O)c3C2)[nH]1 (stereo not given) |
| 142 to 144 °C | C=CS(=O)(=O)NCc1ccc(C(N)=O)cc1 |
| 135 to 136 °C | COC(CN(C)c1nccc(Oc2ccc(NC(=O)c3cc(F)cc(N4CCCCC4)c3)c3ccccc23)n1)OC |
| 124 to 126 °C | CN(C(=S)Nc1ccc(Cl)cc1Cl)c1cccc(C(=CCCCC(=O)O)c2cccnc2)c1 |
| 40.5 to 41 °C | CCCCCC1OCc2cc(C#N)ccc2O1 (stereo not given) |
| 188 to 191 °C | Oc1ccc2cc(-c3cnc(Cc4ccc5ccccc5c4)o3)ccc2c1 |
